Data from publication PMC6895180 (Nature Communications, 2019).
Values joined by “and” are separate entries in the source; they are usually repeats but may differ in a detail not shown here. Equal entries are not always repeated. Where two headings read alike, the source gives them in different places.

What was measured:
[1] = test system: T. brucei Squib 427; experiment: microbe, parasite or virus in culture; assay type: cell-based, Trypanosoma brucei brucei; conditions: for EC50: Trypanosoma brucei
[2] = test system: P1 transporter; assay type: cell-based, Trypanosoma brucei
Protocol: Non-specific association of radiolabel with the cell pellet was determined using an identical incubation in the presence of saturating (1 mM) unlabelled adenosine.

[3] = test system: B48: pentamidine, diminazene and melaminophenyl arsenical resistant T. brucei line; experiment: microbe, parasite or virus in culture; assay type: cell-based, Trypanosoma brucei brucei; conditions: for EC50: Trypanosoma brucei
[4] = test system: T. brucei BSF s427 wildtype cells; experiment: Growth assays of T. brucei (trypanocidal/trypanostatic effect); assay type: cell-based, Trypanosoma brucei
Method in brief: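 Cells were seeded at 1×10^5 cells/mL in HMI-9 with 10% FBS and 2 μM 2'-deoxycoformycin, then counted manually at intervals up to 48 h. For wash-out, cultures at 10^5 cells/mL (37 °C/5% CO2) were split at 8 h and 48 h and resuspended with or without compound, with counts every 24 h (detection limit 10^4 cells/mL).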

Question: What does the source list for Nc1ncnc2c1c(Br)cn2[C@@H]1O[C@H](CO)C[C@H]1O [Compound 10, 3’-deoxy-7-Br-tubercidin]?
Answer: EC50 ([1]; Alamar blue cell viability assay, mean and SEM, read-out: T. b. brucei EC50): 0.0013 ± 0.0003 µM; EC50 ([1]; source data, read-out: T. brucei brucei EC50, Average): 0.00129 µM; SI (MRC/T.b. brucei) ([1]; selectivity index): 11,462; fold improvement of affinity for P1 ([2]; 10 versus 9 (bromine at 7-position)): 10 fold; Ki ([2]; Cheng–Prusoff from IC50, read-out: P1 transporter Ki, single experiments): 13.4 µM and 8.5 µM and 8.4 µM; Ki ([2]; inhibition of [3H]adenosine uptake, mean ± SEM, n = 3, read-out: P1 transporter Ki): 9.47 ± 1.4 µM; Ki ([2]; source data, read-out: P1 transporter Ki, AVG): 10.1 µM; EC50 ([3]; mean and SEM, n = 3, read-out: B48 EC50): 0.0013 ± 0.0003 µM; EC50 ([3]; source data, read-out: B48 EC50, AVG): 0.00132 µM; RF (B48) ([3]; resistance factor vs Lister 427WT): 0.75; AVG of cells/mL ([4]; 2xEC50, 2 h, experiment 1): 128750 cells/mL; Cells/mL ([4]; 2xEC50, 2 h, experiment 1): 137500 Cells/mL and 120000 Cells/mL; Counts ([4]; 2xEC50, 2 h, experiment 1): 55 and 48; AVG of cells/mL ([4]; 2xEC50, 2 h, experiment 2): 145000 cells/mL; Cells/mL ([4]; 2xEC50, 2 h, experiment 2): 147500 Cells/mL and 142500 Cells/mL; Counts ([4]; 2xEC50, 2 h, experiment 2): 59 and 57; AVG of cells/mL ([4]; 2xEC50, 4 h, experiment 1): 143750 cells/mL; Cells/mL ([4]; 2xEC50, 4 h, experiment 1): 162500 Cells/mL and 125000 Cells/mL; Counts ([4]; 2xEC50, 4 h, experiment 1): 50 and 65; AVG of cells/mL ([4]; 2xEC50, 4 h, experiment 2): 148750 cells/mL; Cells/mL ([4]; 2xEC50, 4 h, experiment 2): 160000 Cells/mL and 137500 Cells/mL; Counts ([4]; 2xEC50, 4 h, experiment 2): 55 and 64; AVG of cells/mL ([4]; 2xEC50, 6 h, experiment 1): 172500 cells/mL; Cells/mL ([4]; 2xEC50, 6 h, experiment 1): 177500 Cells/mL and 167500 Cells/mL; Counts ([4]; 2xEC50, 6 h, experiment 1): 71 and 67; AVG of cells/mL ([4]; 2xEC50, 6 h, experiment 2): 203750 cells/mL; Cells/mL ([4]; 2xEC50, 6 h, experiment 2): 192500 Cells/mL and 215000 Cells/mL; Counts ([4]; 2xEC50, 6 h, experiment 2): 77 and 86; AVG of cells/mL ([4]; 2xEC50, 8 h, experiment 1): 183750 cells/mL; Cells/mL ([4]; 2xEC50, 8 h, experiment 1): 177500 Cells/mL and 190000 Cells/mL; Counts ([4]; 2xEC50, 8 h, experiment 1): 71 and 76; AVG of cells/mL ([4]; 2xEC50, 8 h, experiment 2): 206250 cells/mL; Cells/mL ([4]; 2xEC50, 8 h, experiment 2): 215000 Cells/mL and 197500 Cells/mL; Counts ([4]; 2xEC50, 8 h, experiment 2): 86 and 79; AVG of cells/mL ([4]; 2xEC50, 12 h, experiment 1): 163750 cells/mL; Cells/mL ([4]; 2xEC50, 12 h, experiment 1): 195000 Cells/mL and 132500 Cells/mL; Counts ([4]; 2xEC50, 12 h, experiment 1): 78 and 53; AVG of cells/mL ([4]; 2xEC50, 12 h, experiment 2): 143750 cells/mL; Cells/mL ([4]; 2xEC50, 12 h, experiment 2): 160000 Cells/mL and 127500 Cells/mL; Counts ([4]; 2xEC50, 12 h, experiment 2): 64 and 51; AVG of cells/mL ([4]; 2xEC50, 24 h, experiment 1): 103750 cells/mL; Cells/mL ([4]; 2xEC50, 24 h, experiment 1): 125000 Cells/mL and 82500 Cells/mL; Counts ([4]; 2xEC50, 24 h, experiment 1): 50 and 33; AVG of cells/mL ([4]; 2xEC50, 24 h, experiment 2): 15000 cells/mL; Cells/mL ([4]; 2xEC50, 24 h, experiment 2): 15000 Cells/mL; Counts ([4]; 2xEC50, 24 h, experiment 2): 6; AVG of cells/mL ([4]; 2xEC50, 36 h, experiment 1): 103750 cells/mL; Cells/mL ([4]; 2xEC50, 36 h, experiment 1): 107500 Cells/mL and 100000 Cells/mL; Counts ([4]; 2xEC50, 36 h, experiment 1): 43 and 40; AVG of cells/mL ([4]; 2xEC50, 36 h, experiment 2): 7500 cells/mL; Cells/mL ([4]; 2xEC50, 48 h, experiment 1): 0 Cells/mL; Counts ([4]; 2xEC50, 48 h, experiment 1): 0; AVG of cells/mL ([4]; 2xEC50, 48 h, experiment 2): 0 cells/mL; Cells/mL ([4]; 2xEC50, 48 h, experiment 2): 0 Cells/mL; Counts ([4]; 2xEC50, 48 h, experiment 2): 0; effect on T. brucei bloodstream forms in culture (cidal/static) ([4]; 2× and 5× EC50): trypanocidal; AVG of cells/mL ([4]; 5xEC50, 2 h, experiment 1): 138750 cells/mL; Cells/mL ([4]; 5xEC50, 2 h, experiment 1): 132500 Cells/mL and 145000 Cells/mL; Counts ([4]; 5xEC50, 2 h, experiment 1): 53 and 58; AVG of cells/mL ([4]; 5xEC50, 2 h, experiment 2): 140000 cells/mL; Cells/mL ([4]; 5xEC50, 2 h, experiment 2): 137500 Cells/mL and 142500 Cells/mL; Counts ([4]; 5xEC50, 2 h, experiment 2): 55 and 57; AVG of cells/mL ([4]; 5xEC50, 4 h, experiment 1): 152500 cells/mL; Cells/mL ([4]; 5xEC50, 4 h, experiment 1): 150000 Cells/mL and 155000 Cells/mL; Counts ([4]; 5xEC50, 4 h, experiment 1): 62 and 60; AVG of cells/mL ([4]; 5xEC50, 4 h, experiment 2): 153750 cells/mL; Cells/mL ([4]; 5xEC50, 4 h, experiment 2): 160000 Cells/mL and 147500 Cells/mL; Counts ([4]; 5xEC50, 4 h, experiment 2): 59 and 64; AVG of cells/mL ([4]; 5xEC50, 6 h, experiment 1): 171250 cells/mL; Cells/mL ([4]; 5xEC50, 6 h, experiment 1): 167500 Cells/mL and 175000 Cells/mL; Counts ([4]; 5xEC50, 6 h, experiment 1): 67 and 70; AVG of cells/mL ([4]; 5xEC50, 6 h, experiment 2): 140000 cells/mL; Cells/mL ([4]; 5xEC50, 6 h, experiment 2): 155000 Cells/mL and 125000 Cells/mL; Counts ([4]; 5xEC50, 6 h, experiment 2): 62 and 50; AVG of cells/mL ([4]; 5xEC50, 8 h, experiment 1): 131250 cells/mL; Cells/mL ([4]; 5xEC50, 8 h, experiment 1): 130000 Cells/mL and 132500 Cells/mL; Counts ([4]; 5xEC50, 8 h, experiment 1): 52 and 53; AVG of cells/mL ([4]; 5xEC50, 8 h, experiment 2): 146250 cells/mL; Cells/mL ([4]; 5xEC50, 8 h, experiment 2): 142500 Cells/mL and 150000 Cells/mL; Counts ([4]; 5xEC50, 8 h, experiment 2): 57 and 60; AVG of cells/mL ([4]; 5xEC50, 12 h, experiment 1): 98750 cells/mL; Cells/mL ([4]; 5xEC50, 12 h, experiment 1): 107500 Cells/mL and 90000 Cells/mL; Counts ([4]; 5xEC50, 12 h, experiment 1): 43 and 36; AVG of cells/mL ([4]; 5xEC50, 12 h, experiment 2): 95000 cells/mL; Cells/mL ([4]; 5xEC50, 12 h, experiment 2): 92500 Cells/mL and 97500 Cells/mL; Counts ([4]; 5xEC50, 12 h, experiment 2): 37 and 39; AVG of cells/mL ([4]; 5xEC50, 24 h, experiment 1): 28750 cells/mL; Cells/mL ([4]; 5xEC50, 24 h, experiment 1): 27500 Cells/mL and 30000 Cells/mL; Counts ([4]; 5xEC50, 24 h, experiment 1): 11 and 12; AVG of cells/mL ([4]; 5xEC50, 24 h, experiment 2): 7500 cells/mL; Cells/mL ([4]; 5xEC50, 24 h, experiment 2): 7500 Cells/mL; Counts ([4]; 5xEC50, 24 h, experiment 2): 3; AVG of cells/mL ([4]; 5xEC50, 36 h, experiment 1): 18750 cells/mL; Cells/mL ([4]; 5xEC50, 36 h, experiment 1): 12500 Cells/mL and 25000 Cells/mL; Counts ([4]; 5xEC50, 36 h, experiment 1): 5 and 10; AVG of cells/mL ([4]; 5xEC50, 36 h, experiment 2): 1250 cells/mL; Cells/mL ([4]; 5xEC50, 48 h, experiment 1): 0 Cells/mL; Counts ([4]; 5xEC50, 48 h, experiment 1): 0; AVG of cells/mL ([4]; 5xEC50, 48 h, experiment 2): 0 cells/mL; Cells/mL ([4]; 5xEC50, 48 h, experiment 2): 0 Cells/mL; Counts ([4]; 5xEC50, 48 h, experiment 2): 0
